Tests used:
[1] = tested on: high metastatic melanoma B16F10; test: Lung metastasis model of high metastatic melanoma B16F10; assay type: in vivo, C57BL/6 mice; settings: for Tumor number X ± SD: lung; for TGI % (tumor growth inhibition rate): tumor number
Protocol: The method in B16F10 lung metastasis model was as follows. The cultured B16F10 tumor cells were digested and centrifuged and washed for two times with sterile physiological saline and then counted. And the cell concentration was adjusted to 2.5×10^6/ml by physiological saline. 0.2 ml of cells were injected into the C57BL/6 mice through the tail vein, and the tumor cells will gather in the lung of the mice. After inoculation, the animals were randomly divided into two groups in next day. Each group had 6-7 mice. After weighing, the animals were dosed once each day. After 3 weeks, the mice were weighed and killed, the lung tissue was collected and weighed, and the number of lung tumors was counted after being fixed by the Bouin's Fluid. Finally, the tumor growth inhibition rate was calculated, and the tumor growth inhibition rate was used to evaluate the level of anti-tumor effect.
(§1) In the study of the mechanism of the above models, the method of flow cytometry was adopted in measuring the total cell proportion of T cells of various types. The specific steps were as follows. The samples were treated at first. For blood tissue, the orbital blood was taken. The red cell lysate was used to remove the red blood cells, and then the PBS buffer was used for wash. After being washed, the cells were collected. For the tumor and spleen, the tissues were grinded with a homogenizer, and then diluted with PBS buffer, then filtered by 300 meshes of screen. After the number of cells was counted for each sample, 1×10^6 cells were added into EP tube and stained for flow antibody. After incubation for 1 h on ice, each sample was washed 2 times with PBS buffer. The cell population was analyzed by VERSE flow instrument of BD Company. The total number of cells in tumor tissue was 1×10^5 and the total number of cells in blood and spleen tissues was 1×10^4. The ratio of T cells to total number of cells was analyzed after flow cytometry.

[2] = tested on: high metastatic melanoma B16F10; test: Subcutaneous xenograft model of high metastatic melanoma B16F10; assay type: in vivo, C57BL/6 or Bablc mice; settings: for TGI % (tumor growth inhibition rate): tumor weight
Protocol: (§2) The method in subcutaneous xenograft tumor was as follows. The cultured specific tumor cells were digested and collected by centrifugation, and washed with sterile physiological saline for two times and then counted. The cell concentration was adjusted to 5×10^6/ml by physiological saline, and 0.2 ml of cell suspension was inoculated to the right armpit of C57BL/6 or Bablc mice. After inoculation, the animals were randomly divided into two groups in next day. Each group had 6-7 mice. After weighing, the animals were dosed once each day to monitor tumor size. When the tumor size reached to a certain size, the mice was weighed and blood was collected from mice orbit and then the mice were killed by removing the neck. The tumor tissue, thymus tissue and spleen tissue were collected and weighed respectively. Finally, the tumor growth inhibition rate was calculated, and the tumor growth inhibition rate was used to evaluate the level of anti-tumor effect.
as §1

Lewis lung cancer = test: Mouse Lewis lung cancer hydrothorax model; assay type: in vivo, C57BL/6 mice; settings: 10 mg
Protocol: The method in Lewis lung cancer hydrothorax model was as follows: The subcutaneous xenograft tumor of Lewis lung cancer was homogenized and washed for two times with sterile physiological saline, and the cell concentration was adjusted to 2.5×10^5/ml by physiological saline. 0.2 ml of cells were injected into the thoracic cavity of C57BL/6 mice. After inoculation, the animals were randomly divided into two groups in next day. Each group had 6-7 mice. After weighing, the animals were dosed once each day. Animals were sacrificed when the weight of the animals in the control group suddenly dropped. The liquid in thoracic cavity was extracted with syringe and the volume of fluid was recorded.

mouse breast cancer EMT6 = test: Subcutaneous xenograft model of mouse breast cancer EMT6; assay type: in vivo, C57BL/6 or Bablc mice
Protocol: as §2

mouse colon cancer MC38 = test: Subcutaneous xenograft model of mouse colon cancer MC38; assay type: in vivo, C57BL/6 or Bablc mice; settings: result in words
Protocol: as §2

[3] = biological target: interaction between PD-1 and PD-L1 (Homo sapiens (Human), UniProt Q9NZQ7); test: Cisbio PD-1/PD-L1 binding assay kit (HTRF); settings: molecular level, read-out: IC50 (M), inhibitory activity on the interaction between PD-1 and PD-L1
Excerpt: 1. In vitro activity evaluation: Cisbio PD-1/PD-L1 binding assay kit was applied for the detection method of in vitro enzymology level.
Screening Principles and Methods of PD-1/PD-L1 Small Molecule Inhibitors
1) Principle: PD-1 protein is with HIS tag, and PD-1 ligand PD-L1 is with hFc tag. Eu labeled anti-hFc antibody and XL665 labeled anti-HIS antibody are combined with the above two label proteins respectively. After laser excitation, energy can be transferred from donor Eu to receptor XL665, allowing XL665 to glow.
2) Experimental method: The specific method can be referred to Cisbio's PD-1/PD-L1 Kit (item 64CUS000C-2). Reagents should be dispensed in the following order. For 384-well white ELISA plate, 2 μl of diluent or target compound diluted with diluent was added to each well, and then 4 μl of PD-1 protein and 4 μl of PD-L1 protein were added per well, incubated for 15 min at room temperature; and 10 μl of a mixture of anti-Tag1-Eu3^+ and anti-Tag2-XL665 was added per well and incubated for 1 h to 4 h at room temperature and the fluorescence signals at 665 nm and 620 nm were measured with an Envison instrument. HTRF rate=(665 nm/620 nm)*10^4. 8-10 concentrations were detected for each compound and IC50 was calculated by Graphpad software.

Sequence of interaction between PD-1 and PD-L1 (Q9NZQ7 19-238): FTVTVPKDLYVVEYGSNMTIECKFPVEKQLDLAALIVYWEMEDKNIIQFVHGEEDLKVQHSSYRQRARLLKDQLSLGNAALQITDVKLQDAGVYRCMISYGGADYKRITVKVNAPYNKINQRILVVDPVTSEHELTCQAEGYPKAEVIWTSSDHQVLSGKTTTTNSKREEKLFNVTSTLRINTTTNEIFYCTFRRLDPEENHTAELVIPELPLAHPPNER

For `O=C([O-])[C@H](CO)NCc1cc(Cl)c(OCc2cccc(-c3ccccc3)c2Br)cc1OCc1cccnc1.[Na+]` [Example 4 sodium salt, (S)-Sodium N-(4-(2-bromo-3-phenylbenzyloxy)-5-chloro-2-(pyridin-3-yl-methyleneoxy)benzyl) serinate], the “number of lung metastases” value ([1]; 15 mg/kg dose, result in words) was “significantly inhibit”, the “Body weight (g) Mean ± SD Begin” value ([1]; 15 mg/kg) was 20.1 ± 0.9 g and the “Body weight (g) Mean ± SD End” value ([1]; 15 mg/kg) was 21.5 ± 1.2 g. The “Tumor number X ± SD” value ([1]; 15 mg/kg) was 12 ± 3, the “TGI % (tumor growth inhibition rate)” value ([1]; 15 mg/kg) was 42.3% and the “Body weight (g) Mean ± SD Begin” value ([1]; 45 mg/kg) was 20.3 ± 0.6 g. For the same compound, the “Body weight (g) Mean ± SD End” value ([1]; 45 mg/kg) was 21.4 ± 0.3 g, the “Tumor number X ± SD” value ([1]; 45 mg/kg) was 19 ± 15 and the “TGI % (tumor growth inhibition rate)” value ([1]; 45 mg/kg) was 9.5%. For the same compound, the “CD3+ percentage of T lymphocyte in mouse blood” value ([1]; 15 mg) was 29.0 ± 3.7%, the “CD4+ percentage of T lymphocyte in mouse blood” value ([1]; 15 mg) was 17.8 ± 2.4% and the “CD8+ percentage of T lymphocyte in mouse blood” value ([1]; 15 mg) was 9.6 ± 0.8%. For the same compound, the “CD3+ percentage of T lymphocyte in mouse blood” value ([1]; 45 mg) was 23.2 ± 3.6%, the “CD4+ percentage of T lymphocyte in mouse blood” value ([1]; 45 mg) was 14.7 ± 2.5% and the “CD8+ percentage of T lymphocyte in mouse blood” value ([1]; 45 mg) was 7.6 ± 1.3%. For the same compound, the “Tumorweight(g) X ± SD” value ([2]; 15 mg/kg) was 0.93 ± 0.89 g, the “Body weight (g) Mean ± SD Begin” value ([2]; 15 mg/kg) was 20.3 ± 0.4 g and the “Body weight (g) Mean ± SD End” value ([2]; 15 mg/kg) was 21.8 ± 2.1 g. The “TGI % (tumor growth inhibition rate)” value ([2]; 15 mg/kg) was 64.11%, the “Tumorweight(g) X ± SD” value ([2]; 45 mg/kg) was 2.57 ± 0.85 g and the “Body weight (g) Mean ± SD Begin” value ([2]; 45 mg/kg) was 20.4 ± 0.9 g. The “Body weight (g) Mean ± SD End” value ([2]; 45 mg/kg) was 23.8 ± 1.4 g, the “TGI % (tumor growth inhibition rate)” value ([2]; 45 mg/kg) was 0.23% and the “proportion of lymphocytes in the spleen samples” value ([2]; result in words) was “increase”. For the same compound, the “proportion of tumor-infiltrating lymphocytes” value ([2]; result in words) was “increase”, the “CD4+ (%) T lymphocytes in spleen” value ([2]; spleen, 15 mg) was 27.0 ± 1.8% and the “CD8+ (%) T lymphocytes in spleen” value ([2]; spleen, 15 mg) was 13.6 ± 1.8%. For the same compound, the “CD3+ (%) tumor-infiltrating T lymphocytes” value ([2]; tumor, 15 mg) was 13.3 ± 6.9%, the “CD4+ (%) tumor-infiltrating T lymphocytes” value ([2]; tumor, 15 mg) was 7.2 ± 3.4% and the “CD8+ (%) tumor-infiltrating T lymphocytes” value ([2]; tumor, 15 mg) was 3.9 ± 1.4%. For the same compound, the hydrothorax incidence rate (Lewis lung cancer) was 33%, the “hydrothorax volume (mean)” value (Lewis lung cancer) was 0.2 mL and the hydrothorax incidence rate (Lewis lung cancer; listed as sodium salt of Example 4 compound) was 33%. For the same compound, the “TGI % (tumor growth inhibition rate)” value (mouse breast cancer EMT6; 1.5 mg/kg) was 13.1%, the “Tumorweight(g) X ± SD” value (mouse breast cancer EMT6; 1.5 mg/kg) was 1.5 ± 0.61 g and the “Body weight (g) Mean ± SD Begin” value (mouse breast cancer EMT6; 1.5 mg/kg) was 18.4 ± 0.9 g. The “Body weight (g) Mean ± SD End” value (mouse breast cancer EMT6; 1.5 mg/kg) was 22.0 ± 1.6 g, the “TGI % (tumor growth inhibition rate)” value (mouse breast cancer EMT6; 5 mg/kg) was 20.2% and the “Tumorweight(g) X ± SD” value (mouse breast cancer EMT6; 5 mg/kg) was 1.37 ± 0.23 g. The “Body weight (g) Mean ± SD Begin” value (mouse breast cancer EMT6; 5 mg/kg) was 18.4 ± 0.4 g, the “Body weight (g) Mean ± SD End” value (mouse breast cancer EMT6; 5 mg/kg) was 21.0 ± 1.6 g and the “TGI % (tumor growth inhibition rate)” value (mouse breast cancer EMT6; 10 mg/kg) was 22.3%. For the same compound, the “Tumorweight(g) X ± SD” value (mouse breast cancer EMT6; 10 mg/kg) was 1.34 ± 0.34 g, the “Body weight (g) Mean ± SD Begin” value (mouse breast cancer EMT6; 10 mg/kg) was 18.4 ± 0.6 g and the “Body weight (g) Mean ± SD End” value (mouse breast cancer EMT6; 10 mg/kg) was 21.6 ± 1.3 g. For the same compound, the “TGI % (tumor growth inhibition rate)” value (mouse breast cancer EMT6; 15 mg/kg) was 14.7%, the “Tumorweight(g) X ± SD” value (mouse breast cancer EMT6; 15 mg/kg) was 1.47 ± 0.65 g and the “Body weight (g) Mean ± SD Begin” value (mouse breast cancer EMT6; 15 mg/kg) was 18.5 ± 0.4 g. The “Body weight (g) Mean ± SD End” value (mouse breast cancer EMT6; 15 mg/kg) was 22.0 ± 1.1 g, the “inhibition effect on mouse breast cancer EMT6” value (mouse breast cancer EMT6; dose of 10 mg) was 20% and the “inhibition effect on mouse breast cancer EMT6” value (mouse breast cancer EMT6; dose of 15 mg) was 22%. For the same compound, the “antitumor effect in combination with Cyclophosphamide (CTX)” value (mouse colon cancer MC38) was “synergistic antitumor effect” and the “inhibition effect on subcutaneous xenograft of MC38” value (mouse colon cancer MC38) was “significant inhibition effect”.
For `O=C(O)[C@H](Cc1ccc(O)cc1)NCc1cc(Cl)c(OCc2cccc(-c3ccccc3)c2Br)cc1OCc1cccnc1` [Example 21, N-(4-(2-bromo-3-phenylbenzyloxy)-5-chloro-2-(pyridin-3-yl-methyleneoxy)benzyl) tyrosine], the IC50 [3] was 4.06e-07 M.
With `CC[C@H](C)[C@H](NCc1cc(Cl)c(OCc2cccc(-c3ccccc3)c2Br)cc1OCc1cccnc1)C(=O)O` [Example 22, N-(4-(2-bromo-3-phenylbenzyloxy)-5-chloro-2-(pyridin-3-yl-methyleneoxy)benzyl) isoleucine] the IC50 [3] was 4.99e-06 M.
